# Experimental data from patent US6064908A, “Device for ionophoresis comprising at least a membrane electrode assembly, for the transcutaneous administration of active principles to a subject” (Elf Aquitaine, priority 1996, dated 2000).
# Settings: not told
# From the text: In each of the determinations mentioned above, samples of the liquid contained in the receiver compartment were taken after determined durations and, by assaying the antifactor Xa activity of the said samples, the quantity of pentasaccharide which has passed into the receiver compartment through the membrane was obtained.
substance,measurement,value
polyamide-11,"Permeability (to pentasaccharide), passive",~ 0 μg/cm^2
